The source made the active and inactive calls. The rule behind the calls is not given here.
Columns and labels:
[1] = target: Sphingosine 1-phosphate receptor 1 (Homo sapiens) (UniProt P21453); experiment: Agonist activity at S1P1 (unknown origin) relative to control; conditions: filed as agonist
[2] = Apparent permeability across apical to basolateral side in pig LLC-PK1 cells; format: ADME, cell-based, Sus scrofa
[3] = target: T1, Sphingosine 1-phosphate receptor 3 (Homo sapiens, UniProt Q99500); experiment: Agonist activity at S1P3 (unknown origin) relative to control
T1 sequence (Q99500 whole entry): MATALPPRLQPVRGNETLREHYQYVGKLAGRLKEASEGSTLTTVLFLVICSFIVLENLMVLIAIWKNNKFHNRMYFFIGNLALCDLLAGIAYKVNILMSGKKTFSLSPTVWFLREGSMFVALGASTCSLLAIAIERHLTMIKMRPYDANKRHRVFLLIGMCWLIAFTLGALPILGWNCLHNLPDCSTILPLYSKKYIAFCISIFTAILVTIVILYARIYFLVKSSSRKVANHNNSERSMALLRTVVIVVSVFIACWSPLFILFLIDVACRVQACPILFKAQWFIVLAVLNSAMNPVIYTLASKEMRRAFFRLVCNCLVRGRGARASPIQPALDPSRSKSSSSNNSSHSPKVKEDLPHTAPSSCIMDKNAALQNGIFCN

[4] = target: T1, Sphingosine 1-phosphate receptor 3; experiment: Agonist activity at S1P3 (unknown origin)

Chain of Sphingosine 1-phosphate receptor 1 (Homo sapiens) (P21453 whole entry): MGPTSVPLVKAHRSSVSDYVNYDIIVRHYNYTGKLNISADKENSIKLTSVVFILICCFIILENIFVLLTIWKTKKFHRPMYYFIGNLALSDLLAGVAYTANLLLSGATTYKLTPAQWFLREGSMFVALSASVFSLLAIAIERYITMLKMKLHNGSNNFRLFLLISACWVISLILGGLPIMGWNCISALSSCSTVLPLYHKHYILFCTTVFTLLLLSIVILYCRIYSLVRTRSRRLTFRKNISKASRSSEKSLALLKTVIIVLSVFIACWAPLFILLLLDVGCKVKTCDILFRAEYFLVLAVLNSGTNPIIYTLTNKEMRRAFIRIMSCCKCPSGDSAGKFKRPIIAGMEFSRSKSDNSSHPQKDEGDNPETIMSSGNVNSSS

| Structure (SMILES) | Emax [1] [%] | Papp A→B [2] [×10⁻⁶ cm/s] | Emax [3] | EC50 [4] | Emax ([3]; filed as agonist) [%] |
| --- | --- | --- | --- | --- | --- |
| Cn1nc(C(=O)Nc2ccc(-c3ccccc3)c(C(F)(F)F)c2)c(=O)c2ccccc21 | 130 | 2.3 | inactive | Not Active | – |
| Cn1cc(C(=O)Nc2ccc(-c3ccncc3)c(C(F)(F)F)c2)c(=O)c2ccccc21 | 110 | 15 | inactive | Not Active | – |
| Cn1cc(C(=O)Nc2ccc(-c3ccccc3)c(C(F)(F)F)c2)c(=O)c2cnccc21 | 100 | 5.7 | inactive | Not Active | – |
| Cn1cc(C(=O)Nc2ccc(-c3ccccc3)c(C(F)(F)F)c2)c(=O)c2cccnc21 | 100 | 2.2 | inactive | Not Active | – |
| Cn1cc(C(=O)Nc2cnc(-c3ccccc3)c(C(F)(F)F)c2)c(=O)c2ccccc21 | 170 | 11 | inactive | Not Active | – |
| Cn1cc(C(=O)Nc2ccc(-c3ccccc3)c(C(F)(F)F)c2)c(=O)c2ccccc21 | 110 | 1.2 | – | – | 92 |
| Cn1cc(C(=O)Nc2ccc(-c3ccccn3)c(C(F)(F)F)c2)c(=O)c2ccccc21 | 110 | 11 | inactive | Not Active | – |
| Cn1cc(C(=O)Nc2ccc(-c3cccnc3)c(C(F)(F)F)c2)c(=O)c2ccccc21 | 110 | 18 | inactive | Not Active | – |
| Cn1cc(C(=O)Nc2ccc(-c3ccccc3)c(C(F)(F)F)c2)c(=O)c2ccncc21 | 120 | 3.4 | inactive | Not Active | – |
| Cn1cc(C(=O)Nc2ccc(-c3ccccc3)c(C(F)(F)F)n2)c(=O)c2ccccc21 | 120 | < 1 | inactive | Not Active | – |
| Cn1cc(C(=O)Nc2ccc(-c3ccccc3)c(C(F)(F)F)n2)c(=O)c2cnccc21 | 120 | 6.7 | inactive | Not Active | – |
| Cn1cc(C(=O)Nc2cc(C(F)(F)F)c(-c3ccccc3)cn2)c(=O)c2ccccc21 | 59 | < 1 | inactive | Not Active | – |
| Cn1cc(C(=O)Nc2ccc(-c3ccccc3)c(C(F)(F)F)c2)c(=O)c2ncccc21 | 86 | 16 | inactive | Not Active | – |

Reference: ChEMBL document CHEMBL4725229, “Positional Analogue Scanning: An Effective Strategy for Multiparameter Optimization in Drug Design” (J Med Chem, 2020)
